Measured values reported in patent US20170281582A1, “ENHANCER FOR EATING ACTIVITY AND/OR GASTROINTESTINAL ACTIVITY” (KYOWA HAKKO BIO CO., LTD., priority 2012, published 2017).

Key:
[1] = tested on: ddY mice; test: Small intestinal transit (Evans Blue mobility), gastrointestinal motility; type: in vivo; conditions: ddY mice fasted 18 hours, 30 minutes before test meal
Experimental: The symbol ** in the figure means a statistically significant difference (P<0.01) when comparing ornithine hydrochloride-administered group (3 g/kg) with control group, and the symbol in the figure means a statistically significant difference (P<0.001) when comparing ornithine hydrochloride-administered group (5 g/kg) with control group. Statistical processing was performed by using ANOVA and Fisher's test.
Gastrointestinal motility function was examined through small intestinal transit measurements according to the following testing method.
Male, 5 to 7-week ddY mice were used. […] After 30 minutes, the mice were orally administered with a dyed test meal (Evans Blue 5%, carboxymethyl cellulose 1%). The animals were killed by cervical dislocation after 5 minutes, and immediately cut open in the stomach to remove the whole small intestine. For evaluation of the gastrointestinal motility, the full length of the small intestine, and the length from the pylorus to the farthest point marked by the movement of Evans Blue were measured. Evans Blue mobility was calculated according to the following equation, and used as an index.
Mobility (%)=(the length from the pylorus to the farthest point marked by the movement of Evans Blue/the full length of small intestine)×100

[2] = tested on: Wistar rats; test: Blood growth hormone (GH) over time after intraduodenal administration; type: in vivo
Experimental: Statistical processing was performed by using ANOVA and Fisher's test.
Male, 8 to 9-week Wistar rats were used.

| Compound | small intestinal transit compared to the control group ([1]; oral 3 g/kg (body weight), P<0.01 (FIG. 3)) | small intestinal transit compared to the control group ([1]; oral 5 g/kg (body weight), P<0.001 (FIG. 3)) | effect of the antagonist alone on blood GH ([2]; D-Lys3-GHRP-6 0.8 mg/kg i.v. alone) | GH concentration increasing effect of ornithine in presence of ghrelin antagonist ([2]; D-Lys3-GHRP-6 0.8 mg/kg i.v. plus ornithine hydrochloride 5 g/kg, vs ornithine hydrochloride alone, P<0.05 (FIG. 1)) |
| --- | --- | --- | --- | --- |
| Cl.NCCC[C@H](N)C(=O)O [ornithine hydrochloride, L-ornithine hydrochloride] | significantly increased | significantly increased | – | – |
| D-Lys3-GHRP-6 | – | – | does not show the effect | inhibited |
